{"source": "patent US20250043299A1", "about": "“POINT MUTATIONS THAT BOOST AROMATIC AMINO ACID PRODUCTION AND CO2 ASSIMILATION IN PLANTS” (Wisconsin Alumni Research Foundation, priority 2021, published 2025)", "key": {"DHS3^G1": {"molecular_target": "DHS3^G1", "test": "DHS enzyme assay, recombinant DHS3^G1", "type": "biochemical, Arabidopsis thaliana", "experimental": "(§1) To generate DHS proteins with individual sota mutations via site-directed mutagenesis, these pET28a plasmid templates were diluted by 500-fold, mixed with 0.04 U/μL Phusion DNA polymerase (Thermo Scientific), 0.2 mM deoxynucleoside triphosphates (dNTPs), 1× Phusion reaction buffer (Thermo Scientific), and 0.5 μM forward and reverse mutagenesis primers (Table 10). The PCR reaction was run using the following protocol: 98° C. for 30 s followed by 20 cycles of 10 s at 98° C., 20 s at 70° C., 4.5 min at 72° C. with a final extension at 72° C. for 10 min. The PCR products were purified using a QIAquick Gel Extraction Kit (QIAGEN), treated with FastDigest DpnI (Thermo Scientific) to digest methylated plasmid template DNA for 20 min at 37° C., and transformed into E. coli cells. The mutagenized pET28a plasmids were sequenced to confirm that no errors were introduced during the mutagenesis process.\n(§2) The DHS enzyme assays were conducted using the colorimetric method that we recently described (9). Briefly, the enzyme solution (7.7 μl) containing 50 mM Hepes (pH 7.4) was preincubated with an effector molecule(s) at room temperature for 15 min. For assays using recombinant protein and enzyme fractions isolated from plant leaves, 0.01 to 0.1 μg and approximately 50 μg of proteins were used, respectively. After adding 0.5 μl of 0.1 M dithiothreitol, the samples were further incubated at room temperature for 15 min. During these incubations, the substrate solution containing 50 mM Hepes (pH 7.4), 2 mM MnCl2, 4 mM E4P, and 4 mM PEP at final concentration was preheated at 37° C. The enzyme reaction was started by adding 6.8 μl of the substrate solution, then incubated at 37° C. for 30 min, and terminated by adding 30 μl of 0.6 M trichloroacetic acid. After a brief centrifugation, 5 μl of 200 mM NaIO4 (sodium meta-periodate) in 9 N H3PO4 was added to oxidize the enzymatic product and to incubate at 25° C. for 20 min. To stop the oxidation reaction, 20 μl of 0.75 M NaAsO2 (sodium arsenite), which was dissolved in 0.5 M Na2SO4 and 0.05 M H2SO4, was added and immediately mixed. […]"}, "DHS2^WT": {"molecular_target": "T1, DHS2^WT (Arabidopsis thaliana, UniProt Q00218)", "T1 construct": "without the predicted plastid transit peptide (amino acid residues; 49-525, 34-507, and 52-527, respectively); made in house; host or cells: E. coli Rosetta-2", "T1 sequence (Q00218 34-507)": "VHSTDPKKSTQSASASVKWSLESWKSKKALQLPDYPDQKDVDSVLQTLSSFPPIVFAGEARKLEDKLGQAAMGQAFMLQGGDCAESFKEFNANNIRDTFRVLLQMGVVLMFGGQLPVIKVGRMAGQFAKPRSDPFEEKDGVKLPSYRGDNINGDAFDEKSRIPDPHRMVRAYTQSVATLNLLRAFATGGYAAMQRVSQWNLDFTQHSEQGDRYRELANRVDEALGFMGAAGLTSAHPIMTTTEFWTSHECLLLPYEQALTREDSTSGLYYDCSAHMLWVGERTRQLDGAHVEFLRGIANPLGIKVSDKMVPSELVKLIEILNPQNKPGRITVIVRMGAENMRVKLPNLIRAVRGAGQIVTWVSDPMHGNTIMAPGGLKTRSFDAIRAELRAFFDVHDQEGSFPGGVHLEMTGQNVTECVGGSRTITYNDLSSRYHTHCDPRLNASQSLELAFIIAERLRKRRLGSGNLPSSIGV", "test": "DHS enzyme assay, recombinant DHS2^WT", "type": "biochemical", "conditions": "recombinant enzyme; read-out: IC50 of effector molecule on DHS2^WT", "experimental": "as §1, with “To generate recombinant DHS proteins the pET28a vectors carrying the A. thaliana DHS1 (AtDHS1), AtDHS2, or AtDHS3 WT sequence without the predicted plastid transit peptide (amino acid residues; 49-525, 34-507, and 52-527, respectively) were expressed in E. coli Rosetta-2 cells and purified using Ni-affinity chromatography, exactly as was conducted previously (9). To” for “To”\nThe DHS enzyme assays were conducted using the colorimetric method that we recently described (9). Briefly, the enzyme solution (7.7 μl) containing 50 mM Hepes (pH 7.4) was preincubated with an effector molecule(s) at room temperature for 15 min. For assays using recombinant protein and enzyme fractions isolated from plant leaves, 0.01 to 0.1 μg and approximately 50 μg of proteins were used, respectively. After adding 0.5 μl of 0.1 M dithiothreitol, the samples were further incubated at room temperature for 15 min. During these incubations, the substrate solution containing 50 mM Hepes (pH 7.4), 2 mM MnCl2, 4 mM E4P, and 4 mM PEP at final concentration was preheated at 37° C. The enzyme reaction was started by adding 6.8 μl of the substrate solution, then incubated at 37° C. for 30 min, and terminated by adding 30 μl of 0.6 M trichloroacetic acid. After a brief centrifugation, 5 μl of 200 mM NaIO4 (sodium meta-periodate) in 9 N H3PO4 was added to oxidize the enzymatic product and to incubate at 25° C. for 20 min. To stop the oxidation reaction, 20 μl of 0.75 M NaAsO2 (sodium arsenite), which was dissolved in 0.5 M Na2SO4 and 0.05 M H2SO4, was added and immediately mixed. After 5 min of incubation at room temperature, one-third of the sample solution was transferred to a new tube to be mixed with 50 μl of 40 mM thiobarbituric acid and incubated at 99° C. for 15 min in a thermal cycler. The mixture was added to 600 μl of cyclohexanone in eight-strip solvent-resistant plastic tubes, mixed vigorously, and centrifuged at 4500 g for 3 min to separate water- and cyclohexanone-based layers for the extraction off the developed pink chromophore. The absorbance of the pink supernatant was read at 549 nm with the microplate reader (Infinite 200 PRO, TECAN) to calculate DAHP production with the molar extinction coefficient at 549 nm (ε=549 nm) of 4.5×10^4 M^−1 cm^−1. Reaction mixtures with boiled enzymes were run in parallel and used as negative controls to estimate the background signal."}, "[1]": {"molecular_target": "T2, Arabidopsis thaliana DHS1 (AtDHS1), wild type (DHS1^WT), SEQ ID NO:1 (Arabidopsis thaliana, UniProt P29976)", "T2 construct": "without the predicted plastid transit peptide (amino acid residues; 49-525, 34-507, and 52-527, respectively); made in house; host or cells: E. coli Rosetta-2", "T2 sequence (P29976 49-525)": "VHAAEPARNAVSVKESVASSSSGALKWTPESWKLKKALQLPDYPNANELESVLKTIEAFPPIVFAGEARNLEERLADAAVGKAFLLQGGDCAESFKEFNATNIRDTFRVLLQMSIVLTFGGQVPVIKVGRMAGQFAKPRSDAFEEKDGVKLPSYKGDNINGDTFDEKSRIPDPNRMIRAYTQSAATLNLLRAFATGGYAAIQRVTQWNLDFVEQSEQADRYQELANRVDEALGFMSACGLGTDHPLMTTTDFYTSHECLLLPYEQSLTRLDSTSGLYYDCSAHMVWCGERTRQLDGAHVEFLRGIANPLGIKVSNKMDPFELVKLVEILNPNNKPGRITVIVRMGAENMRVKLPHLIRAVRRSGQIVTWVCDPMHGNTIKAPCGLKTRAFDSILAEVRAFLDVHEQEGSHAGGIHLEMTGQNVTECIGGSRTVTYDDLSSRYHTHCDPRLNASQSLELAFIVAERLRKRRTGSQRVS", "test": "DHS enzyme assay with effector, Arabidopsis DHS1 WT", "type": "biochemical", "conditions": "DHS1^WT; 4 mM E4P, 4 mM PEP, pH 7.4, 37° C.", "experimental": "as §1, §2"}}, "data": [{"smiles": "O=C(O)Cc1cc(O)ccc1O", "note": "[HGA, homogentisate]", "values": [{"measurement": "IC50", "setting": "DHS3^G1; read-out: IC50 of effector molecule on DHS3^G1", "result": 375, "unit": "µM"}, {"measurement": "IC50", "setting": "DHS2^WT", "result": 73.9, "unit": "µM"}]}, {"smiles": "O=C(O)C(=O)Cc1ccc(O)cc1", "note": "[HPP, 4-Hydroxyphenylpyruvate]", "values": [{"measurement": "IC50", "setting": "[1]", "result": 305, "unit": "µM"}]}, {"smiles": "N[C@@H](Cc1c[nH]c2ccccc12)C(=O)O", "note": "[Trp, tryptophan]", "values": [{"measurement": "IC50 of effector molecule on DHS3^G1", "setting": "DHS3^G1", "result": "Not inhibited"}]}]}
